Laboratory results taken from US11076595B2, “1-(n,n-disubstituted carbamoyl) 4-(substituted sulfonyl)triazolin-5-one derivative, 4-(n,n-disubstituted carbamoyl) 1-(substituted sulfonyl)triazolin-5-one derivative, and herbicide containing said derivative as active ingredient” (HOKKO CHEMICAL INDUSTRY CO., LTD., priority 2017, dated 2021).

How the values were obtained:
Assay type in all cases: in vivo
[1] = tested on: Chenopodium album; experiment: Test Example 4: herbicidal effect test by foliage treatment in upland field; conditions: upland field foliage treatment 7 days after sowing; 120 g/10a; evaluated 14 days after treatment
Description: (§1) This test was performed with two replications per one formulation concentration plot, and 14 days after the formulation treatments, the weed suppression rate (%) was determined according to the following equation (Math. 1). Weed suppression rate (%)=(1−an average dry weight (g) of plants in treated plots/an average dry weight (g) of plants in untreated plots)×100 [Math. 1]
(§2) A pot having a size of 36 cm^2 was filled with field soil (alluvial soil) and after uniformly mixing the soil of the surface layer of 1 cm with 20 grains of each weed seed of crabgrass, Echinochloa crus-galli, Chenopodium album and Amaranthus viridis, the surface layer was pressed lightly. Seven days after the sowing, an emulsifiable concentrate prepared according to Formulation Example 5 by using the compound shown in Table 8 below was diluted with water, and the water-diluted formulation was sprayed on the soil surface at a ratio of 100 liter per 10 are. The application rate of the active ingredient, by conversion, corresponded to 120 g per 10 are. Fourteen days after the formulation treatment, the herbicidal effect was evaluated by the same criteria as in Test Example 1.

[2] = tested on: Amaranthus viridis; experiment: as above; conditions: upland field foliage treatment 7 days after sowing; 120 g/10a; evaluated 14 days after treatment
Description: as §1, §2

[3] = tested on: Echinochloa crus-galli; experiment: as above; conditions: upland field foliage treatment 7 days after sowing; 120 g/10a; evaluated 14 days after treatment
Description: as §1, §2

[4] = tested on: crabgrass; experiment: as above; conditions: upland field foliage treatment 7 days after sowing; 120 g/10a; evaluated 14 days after treatment
Description: as §1, §2

[5] = tested on: Lindernia pyxidaria; experiment: Test Example 1: herbicidal effect test by soil treatment in paddy field; conditions: 120 g/10a, paddy soil treatment just after sowing, 14 days after treatment
Text: (§3) A Wagner pot having an area of 1/10000 are was filled with paddy field soil and after adding water, a chemical fertilizer (N:P:K=17:17:17) was mixed, followed by puddling. Thereafter, 30 grains of each of Echinochloa crus-galli, broad-leaved weed (Lindernia pyxidaria and Monochoria vaginalis) and Scirpus juncoides seeds were sown to a depth of 0 to 1 cm. Immediately after the sowing, the pot was flooded, and the depth of water was kept at about 3 cm. The pot was subsequently managed in a glass greenhouse. Just after that, an emulsifiable concentrate prepared according to Formulation Example 5 by using the compound shown in Table 5 below was diluted with water, and a predetermined amount of the water-diluted formulation was added dropwise. The application rate of the active ingredient, by conversion, corresponded to 120 g per 10 are.
as §1

[6] = tested on: Echinochloa crus-galli; experiment: as above; conditions: 120 g/10a, paddy soil treatment just after sowing, 14 days after treatment
Text: as §3, §1

[7] = tested on: Scirpus juncoides; experiment: as above; conditions: 120 g/10a, paddy soil treatment just after sowing, 14 days after treatment
Text: as §3, §1

[8] = tested on: Monochoria vaginalis; experiment: as above; conditions: 120 g/10a, paddy soil treatment just after sowing, 14 days after treatment
Text: as §3, §1

[9] = tested on: Lindernia pyxidaria; experiment: Test Example 2: herbicidal effect test by treatment during growing period in paddy field; conditions: treatment 7 days after sowing, 120 g/10a, evaluated 14 days after treatment
Description: as §1
as §3, with “greenhouse. Seven days” for “greenhouse. Just”, “after sowing,” for “after that,”, “Table 6” for “Table 5”, “are. The test was performed with two replications per one formulation concentration plot, and 14 days after the formulation treatments, the weed suppression rate (%) was determined according to the equation (Math. 1).” for “are.”

[10] = tested on: Echinochloa crus-galli; experiment: as above; conditions: treatment 7 days after sowing, 120 g/10a, evaluated 14 days after treatment
Description: as §1
as §3, with “greenhouse. Seven days” for “greenhouse. Just”, “after sowing,” for “after that,”, “Table 6” for “Table 5”, “are. The test was performed with two replications per one formulation concentration plot, and 14 days after the formulation treatments, the weed suppression rate (%) was determined according to the equation (Math. 1).” for “are.”

[11] = tested on: Scirpus juncoides; experiment: as above; conditions: treatment 7 days after sowing, 120 g/10a, evaluated 14 days after treatment
Description: as §1
as §3, with “greenhouse. Seven days” for “greenhouse. Just”, “after sowing,” for “after that,”, “Table 6” for “Table 5”, “are. The test was performed with two replications per one formulation concentration plot, and 14 days after the formulation treatments, the weed suppression rate (%) was determined according to the equation (Math. 1).” for “are.”

[12] = tested on: Monochoria vaginalis; experiment: as above; conditions: treatment 7 days after sowing, 120 g/10a, evaluated 14 days after treatment
Description: as §1
as §3, with “greenhouse. Seven days” for “greenhouse. Just”, “after sowing,” for “after that,”, “Table 6” for “Table 5”, “are. The test was performed with two replications per one formulation concentration plot, and 14 days after the formulation treatments, the weed suppression rate (%) was determined according to the equation (Math. 1).” for “are.”

| SMILES | herbicidal effect (weed suppression rate), Chenopodium album [1] | herbicidal effect (weed suppression rate), Amaranthus viridis [2] | herbicidal effect (weed suppression rate), Echinochloa crus-galli [3] | herbicidal effect (weed suppression rate), Crabgrass [4] | weed suppression rate, Lindemia pyxidaria [5] | weed suppression rate, Echinochloa crus-galli [6] | weed suppression rate, Scirpus juncoides [7] | weed suppression rate, Monochoria vaginalis [8] | weed suppression rate, Lindemia pyxidaria [9] | weed suppression rate, Echinochloa crus-galli [10] | weed suppression rate, Scirpus juncoides [11] | weed suppression rate, Monochoria vaginalis [12] |
| --- | --- | --- | --- | --- | --- | --- | --- | --- | --- | --- | --- | --- |
| Cc1cc(N(C(=O)n2ncn(S(=O)(=O)C(C)C)c2=O)C(C)C)no1 [Compound 1-99] | 80% | 90% | 80% | 90% | 80% | 60% | 50% | 90% | 80% | 90% | 90% | 80% |
| CC(C)N(C(=O)n1ncn(S(=O)(=O)C2CC2)c1=O)c1cccc(F)c1 [Compound 1-170] | 80% | 90% | 80% | 90% | 100% | 90% | 90% | 90% | 90% | 100% | 90% | 90% |
| CC(C)N(C(=O)n1ncn(S(=O)(=O)C2CC2)c1=O)c1c(F)cc(F)cc1F [Compound 1-204] | 60% | 80% | 100% | 100% | 100% | 100% | 100% | 80% | 80% | 100% | 100% | 100% |
| CC(C)N(C(=O)n1ncn(S(=O)(=O)C2CC2)c1=O)c1c(F)c(F)cc(F)c1F [Compound 1-206] | 60% | 80% | 100% | 100% | 100% | 100% | 100% | 90% | 80% | 100% | 100% | 90% |
| CC(C)N(C(=O)n1ncn(S(=O)(=O)C2CC2)c1=O)c1ccc(C(F)(F)F)cc1F [Compound 1-226] | 80% | 90% | 100% | 100% | 100% | 100% | 100% | 100% | 80% | 100% | 90% | 100% |
| CC(C)N(C(=O)n1ncn(S(=O)(=O)C2CCCCC2)c1=O)c1ccc(F)c(F)c1F [Compound 1-309] | 80% | 0% | 100% | 100% | 100% | 100% | 100% | 100% | 80% | 100% | 100% | 100% |
| CC(C)N(C(=O)n1ncn(S(=O)(=O)C2CCCCC2)c1=O)c1c(F)c(F)cc(F)c1F [Compound 1-311] | 60% | 0% | 100% | 100% | 100% | 100% | 100% | 100% | 80% | 100% | 90% | 100% |
| Cc1cc(F)ccc1N(C(=O)n1ncn(S(=O)(=O)C2CCCCC2)c1=O)C(C)C [Compound 1-319] | 70% | 70% | 70% | 80% | 80% | 100% | 100% | 80% | 80% | 100% | 80% | 90% |
| CC(C)N(C(=O)n1ncn(S(=O)(=O)c2cccs2)c1=O)c1ccc(F)cc1 [Compound 1-1052] | – | – | – | – | 80% | 90% | 90% | 80% | 80% | 90% | 90% | 80% |
| CC(C)N(C(=O)n1ncn(S(=O)(=O)N(C)C)c1=O)c1ccccc1F [Compound 1-1093] | – | – | – | – | 80% | 90% | 90% | 80% | 80% | 90% | 90% | 80% |
| CC(C)N(C(=O)n1ncn(S(=O)(=O)N(C)C)c1=O)c1cccnc1F [Compound 1-1128] | – | – | – | – | 90% | 90% | 70% | 60% | 90% | 90% | 70% | 60% |
| CC(C)N(C(=O)n1ncn(S(=O)(=O)N(C)C)c1=O)c1ccc(F)nc1 [Compound 1-1129] | – | – | – | – | 80% | 90% | 90% | 80% | 80% | 90% | 90% | 80% |
| CC(C)N(C(=O)n1ncn(S(=O)(=O)N(C)C)c1=O)c1ccc(Cl)nc1 [Compound 1-1135] | – | – | – | – | 90% | 90% | 90% | 60% | 60% | 90% | 90% | 70% |
